Measurements taken from patent US20060106015A1, “Novel use of benzothiazole derivatives” (priority 2002, published 2006).

target: T1, recombinant human Itk kinase domain fused with GST (Homo sapiens, UniProt Q08881); test: Itk LANCE TRF Assay; assay type: biochemical; conditions: 50 μM ATP, 2 μM peptide substrate, 50 minutes RT; read-out: Inhibition of Kinase Itk (IC50 μM)
T1 construct: recombinant human Itk kinase domain fused with GST; GST (Glutathione S-Transferase); made in house; host or cells: High five insect cells
T1 sequence (Q08881 363-615 limits assumed): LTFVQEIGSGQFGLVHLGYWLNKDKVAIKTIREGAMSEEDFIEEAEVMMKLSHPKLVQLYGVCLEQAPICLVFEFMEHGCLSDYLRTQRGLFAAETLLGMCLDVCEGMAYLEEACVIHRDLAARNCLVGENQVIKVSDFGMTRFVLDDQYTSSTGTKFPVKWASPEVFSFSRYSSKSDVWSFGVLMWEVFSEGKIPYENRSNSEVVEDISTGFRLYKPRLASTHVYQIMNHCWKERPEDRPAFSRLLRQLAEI
Experimental: The Itk kinase assay utilized recombinant human Itk kinase domain fused with GST (Glutathione S-Transferase). The protein was expressed in High five insect cells, purified in one step on an affinity chromatography glutathione column and stored in 50 mM Tris/HCl (pH 7.6), 150 mM NaCl, 5% (w/v) mannitol, 1 mM DTT, 30% glycerol at −70° C. The kinase substrate used in the assay was a biotinylated peptide derived from the Src-optimal substrate (Nair et al, J. Med. Chem., 38: 4276, 1995; biotin-AEEEIYGEFEAKKKK).
The assay additions were as follows: Test compounds (or controls; 1 μL in 100% DMSO) were added to black 96-well flat-bottomed plates (Greiner 655076) followed by 20 μL Itk in assay buffer and the reaction was started by adding 20 μL ATP and peptide substrate in assay buffer. The assay buffer constitution during phosphorylation was: 50 mM HEPES (pH 6.8), 10 mM MgCl2, 0.015% Brij 35, 1 mM DTT, 10% glycerol, 160 ng/well Itk, 2 μM peptide substrate and 50 μM ATP. The assay was stopped after 50 minutes (RT) by adding 150 μL ice-cold Stop solution (50 mM Tris/HCl, pH 7.5, 10 mM EDTA, 0.9% NaCl and 0.1% BSA) together with LANCE reagents (2 nM PT66-Eu^3+, Wallac AD0069 and 5 μg/ml Streptavidin-APC, Wallac AD0059. Both concentrations were final in stopped assay solution). The plates were measured on a Wallac 1420 Victor 2 instrument with TRF settings after 1 h incubation, and the ratio (665 signal/615 signal)*10000 was used to calculate the inhibition values. IC50 values were determined using XLfit.

| IC50 | SMILES |
| --- | --- |
| 3.04 µM | OCc1ccc2nc(-c3ccccc3O)sc2c1 [Example 44, 2-[6-(Hydroxymethyl)-1,3-benzothiazol-2-yl]phenol] |
| 0.94 µM | O=C(NCCCN1CCOCC1)c1ccc2nc(-c3ccc(Cl)cc3O)sc2c1 [Example 6, 2-(4-Chloro-2-hydroxyphenyl)-N-(3-morpholin-4-ylpropyl)-1,3-benzothiazole-6-carboxamide] |
| 1.47 µM | Oc1ccc(Cl)cc1-c1nc2ccc(CN3CCCC3)cc2s1 [Example 34, 4-Chloro-2-[6-(pyrrolidin-1-ylmethyl)-1,3-benzothiazol-2-yl]phenol] |
